From patent US20070142392A1, “Uses of rifamycins” (ActivBiotics, Inc., priority 2005, published 2007) come the findings set out here.

Values after ≈ are worked out from the molar mass of the structure shown.

Common to all, as to assay type: cell-based
For one assay, the system named is S. pneumo. Put plainly: MIC values, S. pneumo. (Tables 1-4).
The subject of a further assay is E. coli. The experiment in a line: MIC values, E. coli (Tables 1-4).
In another assay the test system is H. flu.
A further assay relates to E. faecalis. Put plainly: MIC values, E. faecalis (Tables 1-4).
The subject of a further assay is S. aureus. The experiment in a line: MIC values, S. aureus (Tables 1-4).

On to `CO[C@H]1/C=C/O[C@@]2(C)Oc3c(C)c(O)c4c(=O)c(c5oc6cc(N7CCC(CCO)CC7)cc(O)c6nc-5c4c3C2=O)NC(=O)/C(C)=C\C=C\[C@H](C)[C@H](O)[C@@H](C)[C@@H](O)[C@@H](C)[C@H](OC(C)=O)[C@@H]1C` [Compound 61], for which the “MIC S. pneumo.” value in the assay on S. pneumo. was 0.00012 µg/mL (≈ 0.000129 µM). The “MIC E. coli” value against E. coli was greater than 8 µg/mL. Moreover, the “MIC H. flu” value in the assay on H. flu turned out to be 0.25 µg/mL (≈ 0.269 µM). The “MIC E. faecalis” value in the assay with E. faecalis was found to be 1 µg/mL (≈ 1.08 µM). Further, the “MIC S. aureus” value in the assay on S. aureus is 0.004 µg/mL (≈ 0.00431 µM).

For the compound `CCOC(=O)N1CCCC2CN(c3cc(O)c4nc5c6c7c8c(C)c(O)c6c(=O)c(c-5oc4c3)NC(=O)C(C)=CC=CC(C)C(O)C(C)C(O)C(C)C(O)C(C)C(OC)C=COC(C)(O8)C7=O)CC21` (stereo not shown) [Compound 42], the “MIC S. pneumo.” value against S. pneumo. is 0.00012 µg/mL (≈ 0.000126 µM). Also, in the assay on E. coli, the “MIC E. coli” value came out at 8 µg/mL (≈ 8.38 µM). In addition, the “MIC H. flu” value against H. flu was determined as 0.5 µg/mL (≈ 0.524 µM). Also, the “MIC E. faecalis” value in the assay with E. faecalis amounted to 2 µg/mL (≈ 2.09 µM). In addition, the “MIC S. aureus” value against S. aureus amounted to 0.008 µg/mL (≈ 0.00838 µM).

Take `COC1C=COC2(C)Oc3c(C)c(O)c4c(=O)c(c5oc6cc(N7CC8CCCNC8C7)cc(O)c6nc-5c4c3C2=O)NC(=O)C(C)=CC=CC(C)C(O)C(C)C(O)C(C)C(OC(C)=O)C1C` (stereo not shown) [Compound 141]: the “MIC S. pneumo.” value against S. pneumo. stood at 0.00025 µg/mL (≈ 0.00027 µM). Moreover, in the assay with E. coli, the “MIC E. coli” value was 8 µg/mL (≈ 8.65 µM). Moreover, the “MIC H. flu” value with H. flu was found to be 2 µg/mL (≈ 2.16 µM). For the same compound, in the assay on E. faecalis, the “MIC E. faecalis” value was 0.5 µg/mL (≈ 0.541 µM). The “MIC S. aureus” value against S. aureus was found to be 0.015 µg/mL (≈ 0.0162 µM).

For the compound `CO[C@H]1/C=C/O[C@@]2(C)Oc3c(C)c(O)c4c(=O)c(c5sc6cc(N7C[C@@H](C)N[C@@H](C)C7)ccc6nc-5c4c3C2=O)NC(=O)/C(C)=C\C=C\[C@H](C)[C@H](O)[C@@H](C)[C@@H](O)[C@@H](C)[C@H](O)[C@@H]1C` [Compound 65], the “MIC S. pneumo.” value in the assay on S. pneumo. was 0.00025 µg/mL (≈ 0.000287 µM). Moreover, in the assay with E. coli, the “MIC E. coli” value amounted to 2 µg/mL (≈ 2.3 µM). Further, the “MIC H. flu” value against H. flu is 0.12 µg/mL (≈ 0.138 µM). Besides, in the assay with E. faecalis, the “MIC E. faecalis” value was 0.12 µg/mL (≈ 0.138 µM). Also, the “MIC S. aureus” value in the assay on S. aureus amounted to 0.002 µg/mL (≈ 0.0023 µM).

`CO[C@H]1/C=C/O[C@@]2(C)Oc3c(C)c(O)c4c(=O)c(c5oc6cc(N7CCC(NS(=O)(=O)C(F)(F)F)CC7)cc(O)c6nc-5c4c3C2=O)NC(=O)/C(C)=C\C=C\[C@H](C)[C@H](O)[C@@H](C)[C@@H](O)[C@@H](C)[C@H](O)[C@@H]1C` [Compound 38]: the “MIC S. pneumo.” value in the assay on S. pneumo. was determined as 0.015 µg/mL (≈ 0.0152 µM). For the same compound, the “MIC E. coli” value against E. coli is greater than 8 µg/mL. Further, in the assay on H. flu, the “MIC H. flu” value stood at 0.25 µg/mL (≈ 0.253 µM). Also, the “MIC E. faecalis” value against E. faecalis was 8 µg/mL (≈ 8.09 µM). The “MIC S. aureus” value with S. aureus was 0.12 µg/mL (≈ 0.121 µM).

Turning to `COCCOC(=O)NC1CCN(c2cc(O)c3nc4c5c6c7c(C)c(O)c5c(=O)c(c-4oc3c2)NC(=O)/C(C)=C\C=C\[C@H](C)[C@H](O)[C@@H](C)[C@@H](O)[C@@H](C)[C@H](OC(C)=O)[C@H](C)[C@@H](OC)/C=C/O[C@@](C)(O7)C6=O)CC1` [Compound 41], the “MIC S. pneumo.” value against S. pneumo. turned out to be 0.0005 µg/mL (≈ 0.000499 µM). Also, the “MIC E. coli” value against E. coli is greater than 8 µg/mL. Moreover, the “MIC H. flu” value against H. flu came to 2 µg/mL (≈ 2 µM). In the assay with E. faecalis, the “MIC E. faecalis” value is greater than 8 µg/mL. In the assay on S. aureus, the “MIC S. aureus” value is 0.25 µg/mL (≈ 0.25 µM).

With `CO[C@H]1/C=C/O[C@@]2(C)Oc3c(C)c(O)c4c(=O)c(c5oc6cc(N7CCC(N)CC7)cc(O)c6nc-5c4c3C2=O)NC(=O)/C(C)=C\C=C\[C@H](C)[C@H](O)[C@@H](C)[C@@H](O)[C@@H](C)[C@H](O)[C@@H]1C` [Compound 39], the “MIC S. pneumo.” value against S. pneumo. was 0.001 µg/mL (≈ 0.00117 µM). The “MIC E. coli” value against E. coli was greater than 8 µg/mL. Besides, the “MIC H. flu” value with H. flu came out at 0.25 µg/mL (≈ 0.292 µM). For the same compound, the “MIC E. faecalis” value in the assay on E. faecalis was 2 µg/mL (≈ 2.33 µM). Moreover, the “MIC S. aureus” value in the assay on S. aureus turned out to be 0.03 µg/mL (≈ 0.035 µM).

On to `COCCOC(=O)NC1CCN(c2cc(O)c3nc4c5c6c7c(C)c(O)c5c(=O)c(c-4oc3c2)NC(=O)/C(C)=C\C=C\[C@H](C)[C@H](O)[C@@H](C)[C@@H](O)[C@@H](C)[C@H](O)[C@H](C)[C@@H](OC)/C=C/O[C@@](C)(O7)C6=O)CC1` [Compound 63], for which the “MIC S. pneumo.” value against S. pneumo. was found to be 0.002 µg/mL (≈ 0.00209 µM). Moreover, in the assay on E. coli, the “MIC E. coli” value is 8 µg/mL (≈ 8.34 µM). The “MIC H. flu” value against H. flu worked out at 0.25 µg/mL (≈ 0.261 µM). Further, the “MIC E. faecalis” value against E. faecalis was found to be 1 µg/mL (≈ 1.04 µM). Further, in the assay with S. aureus, the “MIC S. aureus” value amounted to 0.008 µg/mL (≈ 0.00834 µM).

Take `COC1C=COC2(C)Oc3c(C)c(O)c4c(=O)c(c5oc6cc(N7CC8CCCNC8C7)cc(O)c6nc-5c4c3C2=O)NC(=O)C(C)=CC=CC(C)C(O)C(C)C(O)C(C)C(O)C1C` (stereo not shown) [Compound 142]: the “MIC S. pneumo.” value against S. pneumo. was 0.004 µg/mL (≈ 0.00453 µM). Moreover, in the assay on E. coli, the “MIC E. coli” value is greater than 8 µg/mL. Further, the “MIC H. flu” value against H. flu was 4 µg/mL (≈ 4.53 µM). Also, the “MIC E. faecalis” value in the assay with E. faecalis is 4 µg/mL (≈ 4.53 µM). Also, the “MIC S. aureus” value in the assay with S. aureus is 0.12 µg/mL (≈ 0.136 µM).

On to `CO[C@H]1/C=C/O[C@@]2(C)Oc3c(C)c(O)c4c(=O)c(c5oc6cc(N7CCC(NS(=O)(=O)C(F)(F)F)CC7)cc(O)c6nc-5c4c3C2=O)NC(=O)/C(C)=C\C=C\[C@H](C)[C@H](O)[C@@H](C)[C@@H](O)[C@@H](C)[C@H](OC(C)=O)[C@@H]1C` [Compound 23], for which, in the assay on S. pneumo., the “MIC S. pneumo.” value turned out to be 0.00012 µg/mL (≈ 0.000116 µM). The “MIC E. coli” value against E. coli is greater than 8 µg/mL. Moreover, the “MIC H. flu” value against H. flu was found to be 2 µg/mL (≈ 1.94 µM). Further, the “MIC E. faecalis” value in the assay with E. faecalis stood at 4 µg/mL (≈ 3.88 µM). Further, the “MIC S. aureus” value with S. aureus is 0.015 µg/mL (≈ 0.0145 µM).

As for `COC1C=COC2(C)Oc3c(C)c(O)c4c(=O)c(c5oc6cc(N7CC8C(N)C8C7)cc(O)c6nc-5c4c3C2=O)NC(=O)C(C)=CC=CC(C)C(O)C(C)C(O)C(C)C(O)C1C` (stereo not shown) [Compound 20], the “MIC S. pneumo.” value with S. pneumo. came to 1 µg/mL (≈ 1.17 µM). Also, the “MIC E. coli” value with E. coli was greater than 8 µg/mL. The “MIC H. flu” value in the assay on H. flu is greater than 8 µg/mL. The “MIC E. faecalis” value against E. faecalis is greater than 8 µg/mL. Besides, in the assay with S. aureus, the “MIC S. aureus” value is 2 µg/mL (≈ 2.34 µM).

As for `COC1C=COC2(C)Oc3c(C)c(O)c4c(=O)c(c5n(C)c6cc(N7CC(C)NC(C)C7)ccc6nc-5c4c3C2=O)NC(=O)C(C)=CC=CC(C)C(O)C(C)C(O)C(C)C(O)C1C` (mixture of isomers) [Compound 97], in the assay on S. pneumo., the “MIC S. pneumo.” value worked out at 2 µg/mL. The “MIC E. coli” value with E. coli is greater than 8 µg/mL. The “MIC H. flu” value in the assay on H. flu stood at 4 µg/mL. Further, the “MIC E. faecalis” value in the assay with E. faecalis is greater than 8 µg/mL. Further, in the assay on S. aureus, the “MIC S. aureus” value came out at 1 µg/mL.

With `CO[C@H]1/C=C/O[C@@]2(C)Oc3c(C)c(O)c4c(=O)c(c5oc6cc(N7CCC(N(C)C)CC7)cc(O)c6nc-5c4c3C2=O)NC(=O)/C(C)=C\C=C\[C@H](C)[C@H](O)[C@@H](C)[C@@H](O)[C@@H](C)[C@H](OC(C)=O)[C@@H]1C` [Compound 17], the “MIC S. pneumo.” value against S. pneumo. stood at 0.00012 µg/mL (≈ 0.000129 µM). For the same compound, the “MIC E. coli” value with E. coli is 8 µg/mL (≈ 8.63 µM). The “MIC H. flu” value against H. flu is 1 µg/mL (≈ 1.08 µM). For the same compound, the “MIC E. faecalis” value in the assay on E. faecalis is 1 µg/mL (≈ 1.08 µM). In addition, in the assay on S. aureus, the “MIC S. aureus” value turned out to be 0.008 µg/mL (≈ 0.00863 µM).

`CCOC(=O)NCC1CCN(c2cc(O)c3nc4c5c6c7c(C)c(O)c5c(=O)c(c-4oc3c2)NC(=O)/C(C)=C\C=C\[C@H](C)[C@H](O)[C@@H](C)[C@@H](O)[C@@H](C)[C@H](OC(C)=O)[C@H](C)[C@@H](OC)/C=C/O[C@@](C)(O7)C6=O)CC1` [Compound 51]: in the assay with S. pneumo., the “MIC S. pneumo.” value is 0.002 µg/mL (≈ 0.00203 µM). In addition, the “MIC E. coli” value against E. coli was 8 µg/mL (≈ 8.12 µM). Also, the “MIC H. flu” value in the assay on H. flu is 0.25 µg/mL (≈ 0.254 µM). The “MIC E. faecalis” value in the assay with E. faecalis was 8 µg/mL (≈ 8.12 µM). In addition, the “MIC S. aureus” value against S. aureus was 0.06 µg/mL (≈ 0.0609 µM).
